Data taken from PMC11257079 (Environmental science and pollution research international, 2024).
≈ marks a conversion by molar mass, not a printed value. Read-outs that look alike come from different tables or passages of the source.

Tests used:
[1] = ref PubChem, NIH; cited from earlier work
[2] = test system: Hydra vulgaris; assay: Hydra vulgaris assay; assay type: in vivo; conditions: 92 h, read-out: Morphology EC50
[3] = test system: Lemna minor; assay: whole plant or invertebrate; assay type: in vivo; conditions: for EC50 / inhibition at 1.3 µM: Lemna minor, 168 h
[4] = test system: Caenorhabditis elegans; assay: whole plant or invertebrate; assay type: in vivo; conditions: for EC50: Caenorhabditis elegans, 48 h
[5] = at neutral pH and 20–25°C; ref PubChem, NIH; cited from earlier work
[6] = 168 hour (7 day), 95% confidence interval in brackets
[7] = read-out: Chlorophyll Content EC50
[8] = 48 hour, 95% confidence interval in brackets
[9] = 168 hour (7 day), 95% confidence interval in brackets, listed as pentachlorophenol

Structure (SMILES)	LogP [1]	EC50 [2]	Chlorophyll Content EC10 [3, 6]	Frond Number EC10 [3, 6]	Surface Area EC10 [3, 6]	EC50 [3, 7]	EC50 ([3]; read-out: Frond Number EC50)	EC50 ([3]; read-out: Surface Area EC50)	Body Length EC10 [4, 8]	Nose Touch EC10 [4, 8]	Survival EC10 [4, 8]	EC50 ([4]; read-out: Body Length EC50)	EC50 ([4]; read-out: Nose Touch EC50)	EC50 ([4]; read-out: Survival EC50)	Solubility in water [5]	further results
CNC(=O)O/N=C/C(C)(C)SC [Aldicarb]	1.1	4.6 µM	0.096 (0.017–0.17) mM	0.40 (0.28–0.52) mM	1.0 (0–3.9) mM	110 µM	1260 µM	11000 µM	0.22 (0–0.62) mM	0.27 (0–1.6) mM	0.47 (0.29–0.65) mM	250 µM	9600 µM	650 µM		
Oc1c(Cl)c(Cl)c(Cl)c(Cl)c1Cl [Pentachlorophenol]		1.9 µM	0.00073 (0.00027–0.0012) mM	0.0053 (0.0037–0.0070) mM	0.0086 (0–0.031) mM	2.3 µM	8.4 µM	88 µM	0.21 (0–0.98) mM	0.17 NA mM	0.11 (0.099–0.13) mM	180 µM	190 µM	170 µM		Chlorophyll Content EC10 [3, 9]: 0.00073 mM; Frond Number EC10 [3, 9]: 0.0053 mM; Surface Area EC10 [3, 9]: 0.0086 mM; Body Length EC10 ([4]; 48 hour, 95% confidence interval in brackets, listed as pentachlorophenol): 0.21 mM
CCCN(CCC)c1c([N+](=O)[O-])cc(C(F)(F)F)cc1[N+](=O)[O-] [Trifluralin]		10 µM	0.000042 (0–0.00015) mM	0.00037 (0–0.00075) mM	0.00062 (0–0.0014) mM	4.6 µM	1.8 µM	1.4 µM	0.19 (0–1.2) mM	0.19 (0–0.59) mM	0.13 (0.13–0.14) mM	180 µM	220 µM	140 µM		Chlorophyll Content EC10 ([3]; 168 hour (7 day), 95% confidence interval in brackets, listed as trifluralin): 0.000042 mM; Nose Touch EC10 ([4]; 48 hour, 95% confidence interval in brackets, listed as trifluralin): 0.19 mM
C[n+]1ccc(-c2cc[n+](C)cc2)cc1 [Paraquat]	1.7	44 µM	0.00014 (0.00012–0.00016) mM	0.000090 (0.000080–0.000010) mM	0.000098 (0.000060–0.000013) mM	0.16 µM	0.12 µM	0.11 µM	0.086 (0–0.63) mM	0.50 (0–1.3) mM	0.044 (0–0.21) mM	1700 µM	860 µM	50 µM	>620000 µg/mL	
Cl[C@H]1[C@H](Cl)[C@@H](Cl)[C@@H](Cl)[C@H](Cl)[C@H]1Cl [Lindane]	3.8	22 µM	0.0039 (0.0016–0.0061) mM	0.0048 (0.0036–0.0060) mM	0.0040 (0.0021–0.0059) mM	6.1 µM	7.3 µM	11 µM	0.048 (0–0.21) mM	0.020 (0–0.051) mM	0.055 (0–0.45) mM	540 µM	140 µM	38 µM	2 µg/mL (≈ 0.00688 mM)	Chlorophyll Content EC10 ([3]; 168 hour (7 day), 95% confidence interval in brackets, listed as lindane): 0.0039 mM
CON(C)C(=O)Nc1ccc(Cl)c(Cl)c1 [Linuron]		63 µM	0.00010 (0.000069–0.00013) mM	0.00015 (0.00013–0.00016) mM	0.00014 (0.00013–0.00016) mM	0.15 µM	0.18 µM	0.18 µM	0.036 (0.0030–0.070) mM	0.056 (0.029–0.083) mM	0.29 (0–1.3) mM	220 µM	150 µM	650 µM		Chlorophyll Content EC10 ([3]; 168 hour (7 day), 95% confidence interval in brackets, listed as linuron): 0.00010 mM
Oc1c(Cl)cc(Cl)cc1Cl [2,4,6-trichlorophenol]						4 µM	3.6 µM	3.5 µM				180 µM	250 µM	230 µM		inhibition at 1.3 µM ([3]; read-out: Inhibition of frond number): -3 ± 7%; inhibition at 1.3 µM ([3]; read-out: Inhibition of surface area): 5.8 ± 0.9%; Chlorophyll Content EC10 ([3]; in vivo): 0.0011 (0.0003–0.0018) mM; Decrease in chlorophyll content ([3]; in vivo): 15 ± 3%; Frond Number EC10 ([3]; in vivo): 0.0019 (0.0015–0.0023) mM; Surface Area EC10 ([3]; in vivo): 0.0016 (0.0011–0.0021) mM; Body Length EC10 ([4]; in vivo): 0.12 (0.094–0.14) mM; Decrease in nematode survival ([4]; in vivo): 2.6 ± 4%; Impairment to behavior (nose touch response) ([4]; in vivo): 16 ± 3%; Impairment to body length ([4]; in vivo): 5.9 ± 4%; Nose Touch EC10 ([4]; in vivo): 0.12 (0.11–0.15) mM; Survival EC10 ([4]; in vivo): 0.19 (0.15–0.23) mM
O=C(O)CNCP(=O)(O)O [Glyphosate]	−4.6	160 µM	0.054 (0–0.30) mM	0.034 (0.022–0.046) mM	0.053 (0.036–0.071) mM	94 µM	57 µM	60 µM	0.22 (0.13–0.31) mM	0.15 NA mM	0.21 NA mM	250 µM	1000 µM	360 µM	1050 µg/mL (≈ 6.21 mM)	
CCOP(=S)(OCC)Oc1cc(C)nc(C(C)C)n1 [Diazinon]		55 µM	0.016 (0–0.071) mM	0.030 (0–0.140) mM	0.031 (0–0.12) mM	260 µM	330 µM	570 µM	0.016 (0.0083–0.024) mM	0.080 (0.068–0.093) mM	0.057 (0.052–0.061) mM	77 µM	120 µM	71 µM		Chlorophyll Content EC10 ([3]; 168 hour (7 day), 95% confidence interval in brackets, listed as diazinon): 0.0016 mM
